Columns and labels:
[1] = biological target: T1, α-Ketoglutarate semialdehyde dehydrogenase (KGSADH) (Caulobacter vibrioides, UniProt A0A0H3C801); test: biochemical; parameters: product inhibition constants from fits of rate equations to initial rate kinetics of purified enzyme; conditions: read-out: K estimate (mM), inhibition
T1 construct: gene xylA; full-length gene in pET vector, N-terminal His tag, E. coli expression, Ni-TED and size exclusion
T1 sequence (A0A0H3C801 1-478): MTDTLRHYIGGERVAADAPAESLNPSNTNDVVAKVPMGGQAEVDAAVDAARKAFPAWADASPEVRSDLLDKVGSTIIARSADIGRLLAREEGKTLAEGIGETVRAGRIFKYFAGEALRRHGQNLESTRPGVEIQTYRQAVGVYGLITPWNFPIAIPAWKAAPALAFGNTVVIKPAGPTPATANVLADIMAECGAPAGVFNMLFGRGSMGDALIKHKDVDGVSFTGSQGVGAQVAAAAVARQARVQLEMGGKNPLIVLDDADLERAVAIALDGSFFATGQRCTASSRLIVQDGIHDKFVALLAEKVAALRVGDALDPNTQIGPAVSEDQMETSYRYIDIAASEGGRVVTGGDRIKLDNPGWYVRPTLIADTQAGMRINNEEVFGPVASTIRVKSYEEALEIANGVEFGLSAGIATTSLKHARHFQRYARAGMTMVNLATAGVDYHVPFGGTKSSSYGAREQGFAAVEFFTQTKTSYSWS
Method: (§1) All reactions completed the substrate conversion in roughly 90 min, which is in agreement with model simulations that include product inhibition (Fig. 2c). However, a much slower conversion was observed than predicted, based on initial rate kinetics excluding product inhibition (Supplementary Note 1 and Supplementary Figs. 9–11). […] For XLA and KDXD, the inhibition constants for D-xylonate and KGSA, respectively, had to be fitted based on the conversion data, as these enzymes are analysed in coupled enzyme assays. The progress curves after single enzyme additions and the required model adjustments are shown and discussed in Supplementary Note 1, all enzyme kinetic parameters are shown in Supplementary Tables 3–7. […] As a final step in model construction, the one-pot cascade model was established. The results of the sequential pathway reconstruction were used to define the ‘reference state’ for the one-pot cascade conversion of D-xylose to α-[compound left out] (Supplementary Note 1). For this, we added the five enzymes together, using amounts close to those used in the sequential experiment (2.5 μg ml^−1 XDH, 0.8 μg ml^−1 XLA, 8.67 μg ml^−1 XAD, 0.5 μg ml^−1 KDXD and 10 μg ml^−1 KGSADH). The conversion of 5 mM D-xylose via the pathway intermediates to α-[compound left out] was followed using NMR (Fig. 3a). The model based on the isolated reaction kinetics predicted the first part of the pathway accurately, i.e., D-xylose oxidation, lactone cleavage and D-xylonate dehydration. […] S2 enzyme (Supplementary Table 5), measured using an off-line colorimetric assay. […] Product inhibition for the individual metabolites and combination of metabolites was determined in initial rate experiments in a linked KGSADH assay (Supplementary Fig. 7), while for α-[compound left out] semialdehyde the binding constant was estimated in a conversion assay (Supplementary Fig. 10b).

[2] = biological target: T2, D-xylonate dehydratase (XAD) (Caulobacter vibrioides, UniProt A0A0H3C6H6); test: biochemical; parameters: product inhibition constants from fits of rate equations to initial rate kinetics of purified enzyme; conditions: read-out: K estimate (mM), inhibition
T2 construct: gene xylD; full-length gene in pET vector, N-terminal His tag, E. coli expression
T2 sequence (A0A0H3C6H6 1-591): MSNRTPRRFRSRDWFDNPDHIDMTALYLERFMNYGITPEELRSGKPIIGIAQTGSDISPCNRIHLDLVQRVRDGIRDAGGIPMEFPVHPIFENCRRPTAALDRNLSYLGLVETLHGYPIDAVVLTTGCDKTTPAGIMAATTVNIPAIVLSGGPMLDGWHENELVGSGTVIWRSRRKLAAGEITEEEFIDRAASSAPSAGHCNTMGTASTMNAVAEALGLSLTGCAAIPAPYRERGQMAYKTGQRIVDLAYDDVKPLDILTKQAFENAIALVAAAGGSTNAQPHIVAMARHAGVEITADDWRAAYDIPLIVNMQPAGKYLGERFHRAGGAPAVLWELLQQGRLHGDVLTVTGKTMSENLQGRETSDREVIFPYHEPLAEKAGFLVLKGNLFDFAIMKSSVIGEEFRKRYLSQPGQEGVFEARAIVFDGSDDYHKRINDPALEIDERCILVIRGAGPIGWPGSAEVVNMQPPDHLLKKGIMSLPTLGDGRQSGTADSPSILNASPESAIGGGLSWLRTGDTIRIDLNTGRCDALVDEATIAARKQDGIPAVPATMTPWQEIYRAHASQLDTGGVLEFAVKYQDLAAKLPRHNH
Method: as §1

[3] = biological target: T3, D-xylonate dehydratase (XAD) (Caulobacter vibrioides, UniProt Q9A9Z2); test: discontinuous thiobarbituric acid assay; format: biochemical; conditions: 100 mM HEPES/NaOH pH 7.5, 37 °C, enzyme stored with 17 µmol MnCl2 per mg
T3 construct: gene xylD; full-length gene in pET vector, N-terminal His tag, E. coli expression, Ni-TED and size exclusion, stored with MnCl2
T3 sequence (Q9A9Z2 whole entry): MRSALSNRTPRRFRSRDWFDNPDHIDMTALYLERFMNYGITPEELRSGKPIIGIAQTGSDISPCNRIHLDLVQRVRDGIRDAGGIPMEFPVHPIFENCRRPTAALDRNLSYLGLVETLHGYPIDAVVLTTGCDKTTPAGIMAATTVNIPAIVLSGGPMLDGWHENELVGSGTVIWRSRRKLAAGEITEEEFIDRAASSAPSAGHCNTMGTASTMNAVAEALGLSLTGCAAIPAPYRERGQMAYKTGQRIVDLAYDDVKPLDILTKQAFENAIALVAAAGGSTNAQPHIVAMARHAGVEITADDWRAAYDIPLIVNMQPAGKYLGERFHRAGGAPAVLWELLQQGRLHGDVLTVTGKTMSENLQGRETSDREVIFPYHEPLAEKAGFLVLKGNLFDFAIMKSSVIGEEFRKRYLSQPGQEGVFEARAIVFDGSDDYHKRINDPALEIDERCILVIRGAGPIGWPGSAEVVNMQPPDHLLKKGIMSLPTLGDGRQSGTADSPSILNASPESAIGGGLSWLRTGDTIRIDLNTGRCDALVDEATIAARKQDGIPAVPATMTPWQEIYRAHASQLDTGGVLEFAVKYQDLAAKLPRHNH

[4] = biological target: T4, D-xylose dehydrogenase (XDH) (Caulobacter vibrioides, UniProt B8H1Z0); test: biochemical; parameters: product inhibition constants from fits of rate equations to initial rate kinetics of purified enzyme; conditions: read-out: K estimate (mM), inhibition
T4 construct: gene xylB; full-length gene in pET vector, N-terminal His tag, E. coli expression, Ni-TED and size exclusion
T4 sequence (B8H1Z0 1-248): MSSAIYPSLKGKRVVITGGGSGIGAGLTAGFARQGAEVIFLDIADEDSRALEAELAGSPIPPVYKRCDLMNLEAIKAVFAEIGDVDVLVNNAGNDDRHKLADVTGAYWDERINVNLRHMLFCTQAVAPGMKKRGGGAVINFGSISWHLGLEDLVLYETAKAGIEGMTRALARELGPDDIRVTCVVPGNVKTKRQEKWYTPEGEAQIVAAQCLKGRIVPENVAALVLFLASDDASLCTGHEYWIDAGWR

| Ki [1] [mM] | Ki [4] [mM] | SMILES | other results |
| --- | --- | --- | --- |
| 0.021 | – | O=C(O)C(=O)C[C@H](O)CO [2-keto-3-deoxy-D-xylonate] | Ki [2]: 0.86 mM |
| – | – | O=C(O)[C@H](O)[C@@H](O)[C@H](O)CO [D-xylonate] | Km [3]: 790 µM |
| – | 0.54 | O=C1O[C@H](CO)[C@H](O)[C@H]1O [D-xylono-1,4-lactone] | – |
| 0.28 | – | O=C(O)CCC(=O)C(=O)O [KG] | – |
| – | 0.03 | NC(=O)C1=CN([C@@H]2O[C@H](COP(=O)(O)OP(=O)(O)OC[C@H]3O[C@@H](n4cnc5c(N)ncnc54)[C@H](O)[C@@H]3O)[C@@H](O)[C@H]2O)C=CC1 [NADH] | – |

— article PMC7046635, “A combined experimental and modelling approach for the Weimberg pathway optimisation” (Nature Communications, 2020)
